Earlier results, collected in US5641787A, “Indole derivatives as dopamine D4 antagonists” (Merck, Sharp & Dohme Ltd., priority 1995, dated 1997).

Settings: stated in Recl. Trav. Chim. Pays-Bas, 1954, 73, 629

In the case of `c1ccc2c(c1)CCN(Cc1c[nH]c3ccccc13)C2` [3-(1,2,3,4-tetrahydroisoquinolin-2-yl)methyl-1H-indole], the oxytocic activity is listed as “oxytocic activity”.
